Test results from PMC3894558, “Chemical signatures and new drug targets for gametocytocidal drug development” (Scientific Reports, 2014).
Like-named read-outs stand apart in the source and are kept apart here. One block for each molecule: values may come before it.

Columns and labels:
[1] = tested on: P. falciparum 3D7 gametocytes; experiment: alamarBlue gametocyte viability assay, strain 3D7; format: cell-based, Plasmodium falciparum; conditions: for Max Resp: DMSO set at 0%, 100 nM epoxomicin set at -100%
[2] = tested on: P. falciparum HB3 gametocytes; experiment: alamarBlue gametocyte viability assay, strain HB3; format: cell-based, Plasmodium falciparum
Description: (§1) Briefly, gametocyte cultures were set up at 0.1% parasitemia and on days 9–10 treated with 50 mM N-acetylglucosamine (NAG) to block further asexual growth. Stage III–V gametocytes were isolated by Percoll density gradient centrifugation on day 12 and returned to culture for 24 hrs before being used in the assay[9].
(§2) Briefly, 2.5 μl/well incomplete medium was dispensed into each well of 1,536-well plates using the Multidrop Combi followed by 23 nl compound transferring using the NX-TR Pintool (WAKO Scientific Solutions, San Diego, CA). Then, 2.5 μl/well of gametocytes was dispensed with a seeding density of 20,000 cells/well using the Multidrop Combi. The assay plates were incubated for 72 hrs at 37°C with 5% CO2.

[3] = tested on: P. falciparum Dd2 gametocytes; experiment: alamarBlue gametocyte viability assay, strain Dd2; format: cell-based, Plasmodium falciparum
Description: as §1, §2

[4] = tested on: HepG2 cells; experiment: cells; conditions: Homo sapiens; for Emax: HepG2, read-out: % Max response; for IC50: HepG2, read-out: IC50 in HepG2 cells
Excerpt: Growth medium was made with Dulbecco's Modified Eagle Medium with 10% fetal bovine serum (FBS).

[5] = Plasmodium falciparum, 3D7, strain profiling, 11 concentrations, 1:3 dilution, three times, read-out: 3D7-gametocytes IC50
[6] = Plasmodium falciparum, HB3, read-out: HB3-gametocytes IC50
[7] = Plasmodium falciparum, DD2, read-out: Dd2-gametocytes IC50
[8] = Plasmodium falciparum, 3D7, P. falciparum 3D7 gametocytes, mean of at least 3 independent experiments, read-out: Gametocyte IC50
[9] = Plasmodium falciparum, HB3, strain profiling, 11 concentrations, 1:3 dilution, three times, read-out: HB3-gametocytes IC50
[10] = Plasmodium falciparum, DD2, strain profiling, 11 concentrations, 1:3 dilution, three times, read-out: Dd2-gametocytes IC50
[11] = strain profiling, 11 concentrations, 1:3 dilution, three times, read-out: 3D7-gametocytes IC50
[12] = strain profiling, 11 concentrations, 1:3 dilution, three times, read-out: HB3-gametocytes IC50
[13] = strain profiling, 11 concentrations, 1:3 dilution, three times, read-out: Dd2-gametocytes IC50
[14] = Malaria Box, stages III-V 3D7 gametocytes
[15] = Malaria Box, stages III-V 3D7 gametocytes, 11 concentrations, 1:3 dilution
[16] = Malaria Box, stages III-V 3D7 gametocytes, 11 concentrations, 1:3 dilution, read-out: IC50

Molecule: CC[C@@H](C(=O)[C@@H](C)[C@@H](O)[C@H](C)[C@@H]1O[C@@H]([C@@H](CC)C(=O)O)CC[C@@H]1C)[C@H]1O[C@]2(C=C[C@@H](O)[C@]3(CC[C@@](C)([C@H]4CC[C@](O)(CC)[C@H](C)O4)O3)O2)[C@H](C)C[C@@H]1C [Salinomycin sodium]
IC50 [1, 5]: 118 nM
IC50 ([1]; Plasmodium falciparum, P. falciparum 3D7 gametocytes, mean of at least 3 independent experiments, read-out: Gametocyte IC50): 194 nM
IC50 [2, 6]: 372 nM
IC50 [3, 7]: 296 nM
Emax [4]: -69%
IC50 [4]: 29600 nM

IC50 [1, 8]: 12 nM
IC50 [1, 5]: 4 nM
IC50 [2, 9]: 3 nM
IC50 [3, 10]: 2 nM
IC50 [4]: 1180 nM
Molecule: CC(C)C[C@H](NC(=O)[C@H](CCc1ccccc1)NC(=O)CN1CCOCC1)C(=O)N[C@@H](Cc1ccccc1)C(=O)N[C@@H](CC(C)C)C(=O)[C@@]1(C)CO1 [Carfilzomib]
Emax [4]: -79%

Molecule: COC(=O)C[C@](O)(CCCC(C)(C)O)C(=O)O[C@@H]1C(OC)=C[C@]23CCCN2CCc2cc4c(cc2[C@H]13)OCO4 [Omacetaxine mepesuccinate]
IC50 [1, 5]: 59 nM
IC50 [2, 9]: 17 nM
IC50 [3, 10]: 37 nM

Molecule: Salinomycin monosodium
IC50 [1, 11]: 194 nM
IC50 [2, 12]: 469 nM
IC50 [3, 13]: 296 nM

Molecule: CC1=C(CO)C(=O)O[C@@H]([C@@H](C)[C@H]2CC[C@H]3[C@@H]4C[C@H]5O[C@]56[C@@H](O)C=CC(=O)[C@]6(C)[C@H]4CC[C@]23C)C1 [Withaferin A]
IC50 [1, 8]: 372 nM
IC50 [2, 9]: 1330 nM
IC50 [3, 10]: 372 nM
Emax [4]: -80%
IC50 [4]: 9350 nM

IC50 [1, 8]: 833 nM
IC50 [4]: 29600 nM
Molecule: OC(c1cc(C(F)(F)F)nc2c(C(F)(F)F)cccc12)C1CCCCN1 (centres unmarked) [Mefloquine]
Emax [4]: -97%

IC50 [1, 11]: 935 nM
IC50 [2, 12]: 264 nM
IC50 [3, 13]: 526 nM
Molecule: Cl.Cl.Cl.Cl.Cl.Cl.N.N.N.N.N.N.N.N.N.N.N.N.N.N.[O-2].[O-2].[Ru+3].[Ru+3].[Ru+4] [Ruthenium red]

Molecule: CNc1ccc2oc(C[C@H]3O[C@@]4(CC[C@H]3C)O[C@H]([C@H](C)C(=O)c3ccc[nH]3)[C@H](C)C[C@H]4C)nc2c1C(=O)O [Calcimycin]
IC50 [1, 5]: 2640 nM
IC50 [2, 6]: 5900 nM
IC50 [3, 7]: 1660 nM

IC50 [1, 15]: Inactive
Molecule: COc1ccc(C(C)=O)cc1N1C(=O)C2C(C1=O)C1(c3ccccc3)C(=O)C2(c2ccccc2)C(c2ccc(C)cc2)=C1c1ccc(C)cc1 (centres unmarked) [MMV007695]
Max Resp ([1]; Malaria Box): 17%
Curve Class [1, 14]: 4

IC50 [1, 16]: 14800 nM
Molecule: O=c1cc(NC2CCN(CCCc3ccccc3)CC2)c2cc(Cl)ccc2o1 [MMV665786]
Max Resp ([1]; Malaria Box): -89%
Curve Class [1, 14]: -2.1

IC50 [1, 16]: 14800 nM
Molecule: O=C1c2ccc3c4c(ccc(c24)C(=O)N1CCCCO)C(=O)N(CCCCO)C3=O [MMV009085]
Max Resp ([1]; Malaria Box): -71%
Curve Class [1, 14]: -2.2

IC50 [1, 15]: Inactive
Molecule: CCCCOC(=O)c1ccc(Nc2cc(C)nc3ccc(OC)cc23)cc1 [MMV665797]
Max Resp ([1]; Malaria Box): -47%
Curve Class [1, 14]: -2.2

Molecule: Oc1ccc(C(=C(Cl)Cl)c2ccc(O)cc2)cc1 [MMV665949]
Max Resp ([1]; Malaria Box): -40%
Curve Class [1, 14]: -1.2
IC50 [1, 16]: 9350 nM

IC50 [1, 15]: Inactive
Molecule: CCN1CCN(c2c(C(=O)c3ccccc3)cnc3cc(OC)c(OC)cc23)CC1 [MMV008474]
Max Resp ([1]; Malaria Box): -32%
Curve Class [1, 14]: -2.4

IC50 [1, 16]: 29600 nM
Molecule: Cc1cc(Nc2cccc(F)c2)nc(NCc2ccccc2)n1 [MMV006319]
Max Resp ([1]; Malaria Box): -60%
Curve Class [1, 14]: -2.2

IC50 [1, 15]: Inactive
Molecule: CCOC(=O)c1cnc2ccc(Cl)cc2c1NCCCN(C)C [MMV006882]
Max Resp ([1]; Malaria Box): -43%
Curve Class [1, 14]: -2.2

IC50 [1, 15]: Inactive
Molecule: COC(=O)c1ccc(Cl)c2c1C1C=CCC1C(c1cccc3ccccc13)N2 (centres unmarked) [MMV667489]
Max Resp ([1]; Malaria Box): 1%
Curve Class [1, 14]: 4

IC50 [1, 16]: 18700 nM
Molecule: FC(F)(F)c1cccc(Nc2nc3ccccc3nc2Nc2cccc(C(F)(F)F)c2)c1 [MMV665794]
Max Resp ([1]; Malaria Box): -98%
Curve Class [1, 14]: -2.1

IC50 [1, 16]: 23500 nM
Molecule: COc1ccc2nc(C)cc(Nc3ccc(Cl)cc3)c2c1 [MMV007875]
Max Resp ([1]; Malaria Box): -72%
Curve Class [1, 14]: -2.2

IC50 ([1]; Plasmodium falciparum, 3D7, read-out: 3D7-gametocytes IC50, strain profiling, 11 concentrations, 1:3 dilution, three times): 743 nM
IC50 [2, 9]: 1180 nM
IC50 [3, 10]: 1320 nM
Molecule: c1cnc2c(c1)ccc1cccnc12 [1,10-Phenanthroline]
